Results on one molecule are retold here after US11987404B2, “Method for filling containers with a powder” (NTC S.R.L., priority 2019, dated 2024).

The structures appear in SMILES notation.

What all share (assay type): physicochemical
Data set [1] in a line: Dissolution study of mannitol powder in non-carbonated commercial waters. The following applies: 150 g of mannitol in 900 ml of water, weakly acidic or neutral pH. The source says: The solubility of the mannitol powder was then studied in the following three types of non-carbonated commercial waters: • Sangemini: PH at source 6.2; • Antica Fonte Boario: PH at source 7.0; • Panna Toscana: pH at source 8.0.

Data set [2] in a line: Bulk density (Ph. Eur. 2.2.42). The protocol: As regards the bulk density outlined above, in particular the poured bulk density, such parameter is measured according to the European Pharmacopoeia reference standard (Ph. EUR.), current edition 2.2.42, in force at the priority date of this patent application. In the context of the present invention, the expression “bulk” implies that the powder density value is calculated in a manner formally analogous to an absolute density (such as for a solid body or for a liquid). However, since a powder has empty inter-particle spaces, the total volume occupied by the powder (i.e. its outer bulk), thus including the inter-particle spaces between the various particles, should be taken into account when evaluating bulk density. More precisely, according to the aforementioned standard, a 100 ml class A graduated flask is filled and brought to volume with the powder particles, after which the bulk density is calculated as the ratio between the weight of the powder inside the flask and the volume (100 ml) occupied by that weight of the powder particles. Mannitol powder is a poorly flowing powder, which has a certain tendency, just like all fine powders, to agglomerate under pressure. […]

The nature of data set [3]: Accelerated stability 40° C./75% RH in heat-sealed envelope. To be noted: accelerated stability conditions. The protocol:
(§1) The stability of the mannitol in the form of powder object of the present invention was tested, housed inside a heat-sealed envelope in compostable material. 50 grams of said powder were stored for 6 months at 40° C./75% RH (Test 1) and for 6 months at 25° C./60% RH (Test 2). Checks were made of the parameters indicated in Tables 8 and 9 following the times T0-T6 identified as: T0=moment of insertion of the air-conditioned environment, T1=after one month from the moment T0, T2=after two months from the moment T0, T3=after three months from the time T0, T4=after four months from the time T0, T5=after five months from the time T0, T6=after six months from the time T0.

Data set [4] in a line: Long term stability 25° C./60% RH in heat-sealed envelope. To be noted: long-term stability in the climatic area II. The protocol:
as §1

Turning to `OC[C@@H](O)[C@@H](O)[C@H](O)[C@H](O)CO` [mannitol, Mannitol], in data set [1], the complete dissolution time result is given as “more than 6 minutes”. Further, in data set [2] (after passing through 3 mm mesh of the sieve shaker, measured in the laboratory), the transient density result is “about 0.73 g/ml”. Besides, the poured bulk density result in data set [2] (coherent mass before the drum centrifugal sieve shaker) is listed as “about 0.60 g/ml”. The “measured parameters over the test” value in data set [3] and in data set [4] was “remained stable” each time.
